Data on 4 compounds can be found in ChEMBL document CHEMBL1201862, “PubChem BioAssay data set” (2004).

The subject of test [1] is Vero. The test can be described thus: cells. It counts as functional. The conditions noted are these: Chlorocebus sabaeus.
Test [2] relates to Vero. The test can be described thus: cells. It is filed as functional, cell-based. The conditions noted are these: Chlorocebus sabaeus.
Test [3] addresses Neuropeptide Y receptor type 2 (Homo sapiens, UniProt P49146). Put plainly: Fluorescence-based counterscreen for agonists of NPY-Y1: cell-based high-throughput dose response assay for agonists of NPY-Y2. It counts as functional. On the technique in general: The purpose of a counterscreen is to sort out artefacts and off-target activity.
For test [4], the target named is T1, Long-chain-fatty-acid--AMP ligase FadD28 (Mycobacterium tuberculosis, UniProt P9WQ59).
T1 sequence (P9WQ59 whole entry): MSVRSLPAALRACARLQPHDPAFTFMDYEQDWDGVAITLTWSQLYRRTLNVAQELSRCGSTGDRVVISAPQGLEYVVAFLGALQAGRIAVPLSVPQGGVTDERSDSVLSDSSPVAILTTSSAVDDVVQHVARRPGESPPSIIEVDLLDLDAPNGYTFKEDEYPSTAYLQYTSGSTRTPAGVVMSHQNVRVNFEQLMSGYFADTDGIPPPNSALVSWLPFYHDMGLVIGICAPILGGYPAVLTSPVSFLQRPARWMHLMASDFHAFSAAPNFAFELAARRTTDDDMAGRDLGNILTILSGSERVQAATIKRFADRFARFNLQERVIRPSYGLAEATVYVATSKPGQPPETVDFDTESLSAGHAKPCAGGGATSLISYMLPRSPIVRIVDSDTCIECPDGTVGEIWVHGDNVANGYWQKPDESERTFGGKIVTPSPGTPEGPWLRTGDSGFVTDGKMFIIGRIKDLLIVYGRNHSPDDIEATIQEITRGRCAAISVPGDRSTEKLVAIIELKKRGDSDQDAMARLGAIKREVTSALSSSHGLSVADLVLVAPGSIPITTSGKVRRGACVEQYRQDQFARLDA
The test can be described thus: Fluorescence polarization aasay to screen for inhibitors that compete for the binding of FadD28 to a bisubstrate Measured in Biochemical System Using Plate Reader - 2147-01_Inhibitor_Dose_CherryPick_Activity. It counts as functional, Mycobacterium tuberculosis H37Rv. Background: In fluorescence polarisation assays a small probe gives low polarisation when free and higher when bound to something large.

The target of test [5] is Neuropeptide Y receptor type 1 (Homo sapiens, UniProt P25929). The test can be described thus: Fluorescence-based dose response cell-based high-throughput screening assay for agonists of NPY-Y1. [Related pubchem assays: 1697 (Screening assay (NPY-Y1 agonists).), 1359 (Screening assay (NPY-Y2 potentiators or agonists).), 1304 (Screening assay (NPY-Y1 potentiators or agonists).), 1704 (Screening assay (CNGC inhibitors).), 1791 (Summary AID.)]. It is filed as functional.
Chain of Neuropeptide Y receptor type 1 (P25929 whole entry): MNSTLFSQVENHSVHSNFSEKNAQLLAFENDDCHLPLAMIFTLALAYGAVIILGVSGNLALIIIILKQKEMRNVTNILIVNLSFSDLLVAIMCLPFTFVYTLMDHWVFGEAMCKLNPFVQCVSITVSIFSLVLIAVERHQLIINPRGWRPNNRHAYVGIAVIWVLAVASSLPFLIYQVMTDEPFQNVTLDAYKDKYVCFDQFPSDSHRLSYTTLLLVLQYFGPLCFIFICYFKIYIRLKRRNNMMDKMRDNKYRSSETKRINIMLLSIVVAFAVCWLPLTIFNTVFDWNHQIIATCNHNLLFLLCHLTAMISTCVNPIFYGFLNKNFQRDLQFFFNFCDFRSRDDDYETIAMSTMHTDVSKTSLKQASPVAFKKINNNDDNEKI

The nature of test [6]: HepG2 cell cytotoxicity, dose response, cytotoxicity control, ATP luminescence, cherry-pick, activator set 2 (AID 1053143). It is filed as functional, cell-based.
Test [7] has as its system HEK293. Put plainly: Fluorescence-based counterscreen for potentiators or agonists of NPY-Y1: cell-based high-throughput dose response assay for inhibitors of cyclic nucleotide gated ion channel (CNGC) activity. In this assay, the parental HEK293 cell line transfected with a cyclic-nucleotide gated ion channel (CNGC)-based cAMP sensor is used to measure inhibition of isoproterenol-induced CNGC …. The conditions noted are these: Homo sapiens. It counts as functional.

Test [8] has as its target Interleukin-8 (Homo sapiens, UniProt P10145). Put plainly: SAR analysis of tumor necrosis factor alpha (TNF-alpha) induced IL-8 secretion in MCF-7/NOD1 cells. [Related pubchem assays (depositor defined):AID1575, AID2250, AID2260]. It is filed as functional, cell-based.
Test [9] addresses Neurotensin receptor type 1 (Homo sapiens, UniProt P30989). It counts as functional.
Test [10] addresses T2, Microphthalmia-associated transcription factor (Homo sapiens, UniProt O75030).
T2 sequence (O75030 whole entry): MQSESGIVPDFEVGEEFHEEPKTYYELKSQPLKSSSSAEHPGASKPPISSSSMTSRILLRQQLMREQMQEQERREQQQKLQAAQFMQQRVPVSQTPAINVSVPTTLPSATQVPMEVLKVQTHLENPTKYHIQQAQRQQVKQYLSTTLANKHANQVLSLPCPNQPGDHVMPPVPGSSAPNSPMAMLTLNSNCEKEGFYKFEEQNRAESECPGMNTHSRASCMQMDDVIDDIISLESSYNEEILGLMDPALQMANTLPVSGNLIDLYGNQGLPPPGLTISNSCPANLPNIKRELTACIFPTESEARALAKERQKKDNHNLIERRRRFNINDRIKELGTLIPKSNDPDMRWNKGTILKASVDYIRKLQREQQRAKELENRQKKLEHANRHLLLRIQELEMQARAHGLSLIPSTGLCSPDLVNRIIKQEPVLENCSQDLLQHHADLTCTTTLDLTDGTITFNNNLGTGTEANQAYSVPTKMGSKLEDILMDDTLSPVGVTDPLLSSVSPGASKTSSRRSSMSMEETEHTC
The test can be described thus: TRPM1 promoter luciferase signal decrease, dose response, MITF inhibitor project, cell-based, SK-MEL-5, cherry-picked, set 3 (AID 493073).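 Also: SK-MEL-5 melanoma cells with luciferase driven by the MITF target TRPM1 promoter.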 It counts as functional.

In test [11] the target is T3, Eukaryotic translation initiation factor 2-alpha kinase 3 (Homo sapiens, UniProt Q9NZJ5). The test can be described thus: Counterscreen assay for PERK inhibitors: Dose response cell-based high throughput screening assay to measure inhibition of PERK at 6 hours. [Related pubchem assays: 1522, 1416 ]. It is filed as functional.
T3 sequence (Q9NZJ5 whole entry): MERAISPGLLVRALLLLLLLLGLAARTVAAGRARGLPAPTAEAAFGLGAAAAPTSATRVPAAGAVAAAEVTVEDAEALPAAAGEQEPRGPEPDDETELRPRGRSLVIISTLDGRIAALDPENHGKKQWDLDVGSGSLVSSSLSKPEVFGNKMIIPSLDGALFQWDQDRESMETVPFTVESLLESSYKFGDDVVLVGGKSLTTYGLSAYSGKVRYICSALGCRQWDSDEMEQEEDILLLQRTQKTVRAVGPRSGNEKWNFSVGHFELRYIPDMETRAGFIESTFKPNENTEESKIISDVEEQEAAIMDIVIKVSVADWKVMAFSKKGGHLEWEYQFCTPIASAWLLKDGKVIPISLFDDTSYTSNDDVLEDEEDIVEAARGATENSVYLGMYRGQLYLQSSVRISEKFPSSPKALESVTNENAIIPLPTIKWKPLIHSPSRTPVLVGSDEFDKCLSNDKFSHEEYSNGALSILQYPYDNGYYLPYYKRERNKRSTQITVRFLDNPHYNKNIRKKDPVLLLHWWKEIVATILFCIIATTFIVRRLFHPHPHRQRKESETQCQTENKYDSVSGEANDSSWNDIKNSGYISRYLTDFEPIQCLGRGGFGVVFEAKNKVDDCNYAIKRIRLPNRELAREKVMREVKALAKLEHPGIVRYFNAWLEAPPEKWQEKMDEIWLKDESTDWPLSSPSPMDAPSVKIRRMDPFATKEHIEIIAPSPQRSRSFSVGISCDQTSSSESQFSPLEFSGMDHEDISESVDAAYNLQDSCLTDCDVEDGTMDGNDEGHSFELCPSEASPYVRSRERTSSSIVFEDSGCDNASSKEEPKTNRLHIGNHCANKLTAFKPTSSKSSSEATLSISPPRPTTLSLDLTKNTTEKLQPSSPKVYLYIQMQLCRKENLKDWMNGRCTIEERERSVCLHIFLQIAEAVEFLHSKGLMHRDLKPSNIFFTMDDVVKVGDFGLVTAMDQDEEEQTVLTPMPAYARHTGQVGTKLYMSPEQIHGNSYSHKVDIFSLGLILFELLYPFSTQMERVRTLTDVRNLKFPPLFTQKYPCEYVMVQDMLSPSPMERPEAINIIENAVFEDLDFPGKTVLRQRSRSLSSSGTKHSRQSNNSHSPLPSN
The target of test [12] is T3, Eukaryotic translation initiation factor 2-alpha kinase 3. Put plainly: Dose response cell-based high-throughput screening assay to measure PERK inhibition. [Related pubchem assays: 1416 ]. It is filed as functional.

The source made the active and inactive calls.

Chain of Neuropeptide Y receptor type 2 (P49146 whole entry): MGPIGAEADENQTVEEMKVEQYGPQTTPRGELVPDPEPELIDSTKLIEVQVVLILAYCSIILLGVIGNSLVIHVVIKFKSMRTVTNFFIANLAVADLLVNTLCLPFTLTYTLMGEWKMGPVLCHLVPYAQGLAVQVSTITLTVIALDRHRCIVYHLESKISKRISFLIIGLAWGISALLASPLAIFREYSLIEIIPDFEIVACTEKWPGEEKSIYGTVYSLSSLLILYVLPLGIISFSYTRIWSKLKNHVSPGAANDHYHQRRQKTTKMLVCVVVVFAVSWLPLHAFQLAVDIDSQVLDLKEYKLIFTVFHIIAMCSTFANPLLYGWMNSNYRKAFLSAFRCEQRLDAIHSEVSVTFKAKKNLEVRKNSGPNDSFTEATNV
Chain of Neurotensin receptor type 1 (P30989 whole entry): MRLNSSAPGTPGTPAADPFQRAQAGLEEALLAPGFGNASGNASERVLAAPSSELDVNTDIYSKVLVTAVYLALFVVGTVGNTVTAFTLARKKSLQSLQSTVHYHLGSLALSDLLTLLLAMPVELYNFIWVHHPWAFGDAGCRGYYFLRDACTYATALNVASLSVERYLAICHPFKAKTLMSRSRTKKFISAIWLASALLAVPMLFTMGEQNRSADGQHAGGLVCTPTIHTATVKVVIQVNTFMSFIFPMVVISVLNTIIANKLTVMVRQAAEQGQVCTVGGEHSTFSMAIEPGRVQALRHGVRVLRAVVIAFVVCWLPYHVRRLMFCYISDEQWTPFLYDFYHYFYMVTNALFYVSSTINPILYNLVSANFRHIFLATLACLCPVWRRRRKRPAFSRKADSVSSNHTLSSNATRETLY
Chain of Interleukin-8 (P10145 whole entry): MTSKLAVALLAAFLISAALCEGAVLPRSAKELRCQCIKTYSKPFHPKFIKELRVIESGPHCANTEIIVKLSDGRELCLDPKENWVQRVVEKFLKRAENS

Consider `Cn1cc([N+](=O)[O-])c(C(=O)Nc2ccc(C3CCCCC3)cc2)n1`, for which, in test [1], the 50% cytotoxic concentration (CC50) (usually the concentration at which the toxic effect on the cells reaches its halfway point) was > 25 µM (active). Also, the 50% inhibitory concentration (IC50) (commonly the concentration that gives 50% inhibition) in test [2] was 9.92 µM (active); in [7] it was 8.17 µM (active). In addition, the half-maximal effective concentration (EC50) (commonly the concentration that produces a half-maximal response) in test [3] was 12.1 µM (not active); in test [5], 9.71 µM (active). The values for the AC50 in test [4] and in [6] were > 100 µM (inactive) and 18.5 µM (active), respectively.
As for `COc1ccc(S(=O)(=O)n2c(N)nc3ccccc32)cc1`, in test [8], the IC50 is > 5 µM (inactive).
On to `Cc1cccc(N2C(=O)NC(=O)/C(=C\c3cccn3-c3ccc(Cl)cc3)C2=O)c1`, for which the cytotoxic concentration (CC50) in test [1] is 23.4 µM (active). Besides, the 50% effective concentration (EC50) in [9] is 9.06 µM (active). For the same compound, in test [10], the AC50 – broadly, the concentration giving half of the maximal activity seen – is 8.91 µM (active).
Regarding `C=CCNC(=O)Nc1ccc(F)cc1F`, the EC50 in test [11] and in test [12] was > 55.7 µM (not active) each time.
